Patent US9676822B2, “Oligopeptidic compounds and uses thereof” (APIM THERAPEUTICS AS, priority 2008, dated 2017)
Where a SMILES comes first, the peptide text is derived from it. Where no end group is shown, it is not given here. Side-chain parts run from the residue outwards. The star is where a group is joined. 5FAM = O=C1OC2(c3ccc(O)cc3Oc3cc(O)ccc32)c2ccc(C(=O)*)cc21; Ahx = NCCCCCC(=O)O

What was measured:
[1] = tested on: EYFP and hABH21-10-EYFP expressing cells; assay: Flow analysis of the cell cycle after treatment with alkylating agents; format: cell-based
From the text: (§1) This is surprising since TMZ is believed to induce mainly O^6methyl-G which is repair by a direct repair mechanism by MGMT, not involving removal of any bases or strand breaks. […] The cells were still arrested in G2/M on day 3.

[2] = tested on: EYFP and hABH21-10-EYFP expressing cells; assay: Comet assay for DNA repair intermediates after treatment with alkylating agents; format: cell-based
From the text: as §1

[3] = tested on: cell membranes; format: cell-based
Protocol: The cells were treated with different concentrations (2, 4 and 8 μM) of peptide for 1 hour. Next, propidium iodide (PI) (50 μg/ml in PBS) was added, this will stain DNA if the cell membranes are permeable. Analysis were done within the next 10 minutes on a FACS Canto flow cytometer (BD-Life Science).

[4] = tested on: HeLa cells; assay: MTT assay, peptide with cytostatic drugs (MMS, Cisplatin); format: cell-based
Protocol: The effects of the peptides in sensitising cells to the effects of cytostatic drugs were investigated using an MTT assay and a clonogenic assay (CFU assay) as described below.
HeLa cells were seeded into 96 well plates (6000 cells/well) and incubated for 3 hours. Various doses of MMS and Cisplatin were added to the wells. After 24 hours peptides were added to the cells in serum free media and incubated for 1 h. Fresh media with cytostatic drugs was added and the cells were harvested after additional 24, 48 and 72 hours. MTT was added to the cells (3-(4,5-Dimethylthiazol-2-yl)-2,5-diphenyltetrazolium bromide) and OD was measured at 570 nm [52], and the average from at least 6 wells was used to calculate cell survival. Data is presented as growth from one representative experiment and has been reproduced at least 2 times.

[5] = tested on: HeLa cells
Protocol: HeLa cells were seeded into 96 well plates (6000 cells/well) and incubated for 3 hours. Various doses of peptides were added to the wells in presence (filled diamonds) or absence of serum (filled square) in the media. After 1 h equal volume media with 10% or 20% serum (to serum free media) were added to the wells. The cells were incubated for 48 hours before measurement of cell survival by the MTT assay.
Cytotoxicity of the peptides was investigated by an MTT assay as described below, using the peptides alone, in the absence of cytostatic drugs. Cytotoxicity data was also obtained from controls used in the cytostatic drug MTT assays (controls with peptide but without cytostatic drug), where the control peptides were followed for longer (4 days).
Cytotoxicity of the peptides after 48 hours are measured using the MTT assay. HeLa cells were seeded into 96 well plates (6000 cells/well) and incubated for 3 hours. Various doses of peptides were added to the wells in presence or absence of serum in the media. After 1 h equal volume media with 1× or 2× (to serum free media) were added and the cells incubated for 48 hours before addition of MTT (see above).

[6] = tested on: HeLa cells; assay: Cell survival assay (MTT) of HeLa cells expressing the construct, with alkylating agents; format: cell-based
Protocol: HeLa and HaCaT cells were seeded into 96 well plates (4000 cells/well) and incubated for 4 hours. […] The U2OS cells were exposed to MMS and TMZ only. The cells were exposed continuously until harvest. Cells were harvested every day for 4 days using the MTT assay (Mosmann, 1983). OD was measured at 570 nm, and the average from at least 6 wells was used to calculate cell survival. Data presented is growth from one representative experiment and has been reproduced at least 2 times. […] TZM is reported to be an O^6G methylating agent, while MMC causes interstrand cross links via N-alkylation of guanine in CpG's.

[7] = target: T1, PCNA (Homo sapiens, UniProt P12004); assay: FRET measurement with ECFP-PCNA; format: cell-based; settings: positive FRET: distance between tags less than 100 Å
T1 construct: endogenous in cells; host or cells: HeLa cells stably expressing the EYFP fusion constructs; fractionated cell extracts
T1 sequence (P12004 whole entry, the tested form may be a part): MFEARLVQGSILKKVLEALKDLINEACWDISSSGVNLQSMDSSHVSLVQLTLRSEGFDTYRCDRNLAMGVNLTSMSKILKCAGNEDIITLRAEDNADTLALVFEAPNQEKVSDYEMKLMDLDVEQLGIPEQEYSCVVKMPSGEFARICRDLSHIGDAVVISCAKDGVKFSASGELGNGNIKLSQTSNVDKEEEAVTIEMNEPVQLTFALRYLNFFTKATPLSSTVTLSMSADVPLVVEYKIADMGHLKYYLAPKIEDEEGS
From the text: Fluorescent resonance energy transfer (FRET) occurs if the tags (EYFP and ECFP) are less than 100 Å (10 nm) apart. We detected FRET using the sensitised emission method, measuring acceptor (EYFP) emission upon donor (ECFP) excitation. We had FRET when the intensity of emitted light from EYFP after excitation of the ECFP fluorochrome was stronger than the light emitted by ECFP or EYFP-tagged proteins alone, after excitation with the EYFP and ECFP lasers respectively (bleed through), given by the equation: FRET=I2−I1 (ID2/ID1)−I3 (IA2/IA3) is >0. FRET was normalised for expression levels using the equation: NFRET=FRET/(I1×I3)^1/2. NFRET was calculated from mean intensities (I) within a region of interest (ROI) containing more than 25 pixels where all pixels had intensities below 250 and the average intensities were between 100 and 200 for both the donor and the acceptor constructs. Channel 1 (ECFP) and 3 (EYFP) were measured as described above for imaging, and channel 2 (FRET) was excitated with 2=458 nm and detected at λ=530-600 nm. ID1, D2, D3 and IA1, A2, A3 were determined for cells transfected with ECFP and EYFP constructs only, with same settings and same fluorescence intensities as co-transfected cells (I1 and I3). […]
To examine the degree of proximity of hABH2 and PCNA, fluorescence resonance energy transfer (FRET) was measured.

[8] = target: T1, PCNA; assay: Co-immunoprecipitation and western analysis of endogenous PCNA; format: binding; settings: anti-GFP immunoprecipitation, extracts of stably expressing cells
Protocol: HeLa (cervical cancer) and HaCaT (spontaneously transformed keratinocyte) cells stably expressing the constructs of interest were prepared by transfection (by Fugene 6) followed by cell sorting or cloning by dilution, and prolonged culturing in selective (using geneticin, G418, 400 μg/ml, Invitrogen) Dulbecco's modified Eagle's Medium high glucose 4.5 g/l (DMEM) (BioWhittaker®) supplemented with 10% Fetal Calf Serum (FCS), Amphotericin B (250 μg/ml, Sigma-Aldrich), gentamycin (100 μg/ml, Gibco) and glutamine (1 mM, BioWhittaker®). The cells were cultured at 37° C. in 5% carbon dioxide, humidified atmosphere. Fractionated cell extracts from HeLa were prepared by resuspending the cell pellets in 1× packed cell volume (PCV) in buffer I (10 mM Tris-HCl, pH 8.0 and 50 mM KCl) and 1×PCV in buffer II (10 mM Tris-HCl, 100 mM KCl, 20% glycerol, 0.5% Nonidet P-40, 10 mM EGTA, 10 mM MgCl2, 1 mM DTT, 1× Complete protease inhibitor (Roche), phosphates inhibitor cocktail (PIC I and PIC II, Sigma). Cells were incubated under constant shaking for 30 min at 4° C. The supernatant (soluble fraction) was harvested. The pellet (containing nuclei) was resuspended in 1×PCV of buffer III (10 mM Tris-HCl, pH 8.0 and 100 mM KCl) and 1×PCV buffer II, and briefly sonicated until all nuclei were disrupted. […]

[9] = target: T1, PCNA; assay: Co-localisation of EYFP fusion constructs with ECFP-PCNA by confocal imaging; format: cell-based; settings: co-expressed with ECFP-PCNA
Protocol: Confocal imaging and FRET measurements Live HeLa cells were examined 16-24 hours after transient transfection (by Fugene 6 (Roche Inc.) according to the manufacturer's recommendations) of ECFP and EYFP fusion constructs. Fluorescent images were acquired using a Zeiss LSM 510 Meta laser scanning microscope equipped with a Plan-Apochromat 63×/1.4 oil immersion objective. Enhanced cyan fluorescent protein (ECFP) was excited at λ=458 nm and detected at λ=470-500 nm and enhanced yellow fluorescent protein (EYFP) was excited at λ=514 nm and detected at λ=530-600 nm, using consecutive scans. The thickness of the slice was 1 μm.
PCNA tagged with cyan fluorescent protein (ECFP) was co-expressed with various hABH2 deletion constructs fused with yellow fluorescent protein (EYFP). […] (FIG. 1).

[10] = tested on: HaCaT (spontaneously transformed keratinocyte) cells; assay: Cell survival assay of HaCaT cells stably expressing the construct; format: cell-based
Protocol: HeLa and HaCaT cells were seeded into 96 well plates (4000 cells/well) and incubated for 4 hours. […] The U2OS cells were exposed to MMS and TMZ only. The cells were exposed continuously until harvest. Cells were harvested every day for 4 days using the MTT assay (Mosmann, 1983). OD was measured at 570 nm, and the average from at least 6 wells was used to calculate cell survival. Data presented is growth from one representative experiment and has been reproduced at least 2 times.

[11] = HeLa cells expressing the construct

O=NN(CCCl)C(=O)NCCCl [BCNU, 1,3-Bis(2-chloroethyl)-1-nitrosourea] was tested, and the cell cycle effect [1] was “transient G2/M arrest on day 1” and the “DNA repair intermediates (abasic sites, SSB, DSB)” value (“DNA repair intermediates” for short) [2] was “very low levels of repair intermediates”.
For CC[C@H](C)[C@H](NC(=O)[C@H](CCCCN)NC(=O)[C@@H](NC(=O)[C@H](CCC(N)=O)NC(=O)[C@H](CCCNC(=N)N)NC(=O)[C@H](CC(C)C)NC(=O)[C@@H](NC(=O)[C@H](CCCCN)NC(=O)[C@H](CCCNC(=N)N)NC(=O)[C@H](CCCCN)NC(=O)[C@H](CCCCN)NC(=O)[C@H](CCCCN)NC(=O)[C@@H]1CCCN1C(=O)[C@H](CCC(N)=O)NC(=O)[C@H](C)NC(=O)CNC(=O)[C@H](CCCCN)NC(=O)[C@@H](NC(=O)[C@H](CC(C)C)NC(=O)[C@H](Cc1c[nH]c2ccccc12)NC(=O)[C@H](CCCNC(=N)N)NC(=O)[C@H](CC(=O)O)NC(=O)[C@@H](N)CCSC)C(C)C)C(C)C)[C@@H](C)CC)C(=O)N[C@@H](Cc1c[nH]c2ccccc12)C(=O)N[C@@H](Cc1ccccc1)C(=O)N[C@@H](CCC(N)=O)C(=O)N[C@@H](CC(N)=O)C(=O)N[C@@H](CCCNC(=N)N)C(=O)N[C@@H](CCCNC(=N)N)C(=O)N[C@@H](CCSC)C(=O)N[C@@H](CCCCN)C(=O)N[C@@H](Cc1c[nH]c2ccccc12)C(=O)N[C@@H](CCCCN)C(=O)N[C@@H](CCCCNC(=O)CCCCCNC(=O)c1ccc2c(c1)C(=O)OC21c2ccc(O)cc2Oc2cc(O)ccc21)C(=O)NCC(=O)O [MDR2] (H-MDRWLVKGAQPKKKRKVLRQIKIWFQNRRMKWKK([Ahx-5FAM])G-OH), the “membrane toxicity” value [3] was “membrane toxicity is low”.
With COS(C)(=O)=O [MMS, methyl methanesulfonate] the cell cycle effect [1] was “S-phase arrest” and the “DNA repair intermediates” value [2] was “highest levels of DNA repair intermediates after 4 hours”.
With Cn1nnc2c(C(N)=O)ncn2c1=O [TMZ, 4-methyl-5-oxo-2,3,4,6,8-pentazabicyclo [4.3.0] nona-2,7,9-triene-9-carboxamide] the cell cycle effect [1] was “arrested in G2/M up to day 3” and the “DNA repair intermediates” value [2] was “highest levels of repair intermediates after 4 hours”.
With “Ac-MDRWLVKWKKKRKIRRRRRRRRRRR [MDR26-72-0]” the “activity in the MTT assay” value [4] was “good activity”.
“MDRWLVKRIWKKKRKIIRQIKIWFQNRRMKWKK-Ahx5-FAM)G (not fully specified (residue 33, C-terminus); printed as MDRWLVKRIWKKKRKIIRQIKIWFQNRRMKWKK-Ahx5-FAM)G; also: Ahx5-FAM label and G at C-terminal end, arrangement unclear) [MDR26-8]” was tested, and the Cytotoxicity [5] was “+”.
With “hABH21-10-EYFP: the 10 N-terminal amino acids of hABH2 fused to EYFP, expressed in cells (MDRFLVKGAQ; not fully specified (C-terminus); also: fused to EYFP, expressed in cells)” the “sensitisation to MMS” value [6, 11] was “sensitised HeLa cells to treatment with MMS”, the “sensitisation to the other cytostatic agents (BCNU, TZM, MMC)” value [6, 11] was “sensitised HeLa cells to all of the other cytostatic agents tested” and the “growth rate of untreated cells” value ([6]; over-expression, no cytostatic agent) was “did not interfere with the growth rate of untreated cells”. The “FRET with ECFP-PCNA” value [7] was “positive FRET”, the “pull-down of endogenous PCNA” value [8] was “pulled down” and the “co-localisation with PCNA in replication foci” value [9] was “sufficient for co-localisation with PCNA”. The “sensitivity to MMS and TMZ” value [10] was “hypersensitive to MMS and TMZ”.
